Laboratory results from the NIST ThermoML archive (doi:10.1021/je0604232).

Test: molar heat capacity at constant pressure; xn = mol fraction of the nth substance listed
Conditions: 101 kPa, Liquid

NCCNCCO [N-(2-aminoethyl)ethanolamine] + O
molar heat capacity at constant pressure [J/K/mol]
Conditions	x1 = 0.0999	x1 = 0.1999	x1 = 0.2995	x1 = 0.4	x1 = 0.5002	x1 = 0.5997	x1 = 0.7011	x1 = 0.8003	x1 = 0.8979	x1 = 1
303.15 K	100	121	141	161	181	201	221	240	258	279
308.15 K	103	125	145	165	185	205	226	245	263	284
313.15 K	104	127	147	167	187	207	227	247	265	285
318.15 K	106	129	150	170	190	209	229	249	266	286
323.15 K	107	131	152	172	192	211	231	250	267	287
328.15 K	110	134	155	175	195	214	233	252	269	289
333.15 K	112	137	158	178	197	216	235	254	271	290
338.15 K	116	141	162	181	201	219	238	257	273	292
343.15 K	120	146	167	185	204	223	241	260	275	293
348.15 K	124	152	172	189	208	227	244	262	277	295
353.15 K	130	158	177	194	213	231	248	265	279	296
